Laboratory results: US20120046302A1, “METHODS OF TREATING CNS DISORDERS” (priority 2008, published 2012)
Structures can show the parent of a compound that is named as a salt.

Legend:
5-HT2C = target: T1, 5-HT2C (Homo sapiens, UniProt P28335); settings: background; cited from earlier work
T1 sequence (P28335 33-458): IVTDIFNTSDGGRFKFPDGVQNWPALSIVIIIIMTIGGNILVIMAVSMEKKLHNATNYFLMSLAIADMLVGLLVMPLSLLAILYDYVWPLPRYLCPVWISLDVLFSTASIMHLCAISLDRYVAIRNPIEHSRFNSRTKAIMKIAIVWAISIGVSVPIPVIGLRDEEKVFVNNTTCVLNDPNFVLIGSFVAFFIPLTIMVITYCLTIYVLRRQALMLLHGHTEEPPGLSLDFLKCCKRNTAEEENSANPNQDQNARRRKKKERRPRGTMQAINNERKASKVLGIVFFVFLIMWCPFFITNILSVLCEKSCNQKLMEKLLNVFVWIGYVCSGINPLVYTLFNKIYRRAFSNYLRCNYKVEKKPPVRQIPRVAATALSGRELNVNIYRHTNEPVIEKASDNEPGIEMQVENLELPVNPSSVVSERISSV

histamine H1 = histamine H1 (Homo sapiens, UniProt P35367); settings: background; cited from earlier work
Sequence of histamine H1 (P35367 whole entry): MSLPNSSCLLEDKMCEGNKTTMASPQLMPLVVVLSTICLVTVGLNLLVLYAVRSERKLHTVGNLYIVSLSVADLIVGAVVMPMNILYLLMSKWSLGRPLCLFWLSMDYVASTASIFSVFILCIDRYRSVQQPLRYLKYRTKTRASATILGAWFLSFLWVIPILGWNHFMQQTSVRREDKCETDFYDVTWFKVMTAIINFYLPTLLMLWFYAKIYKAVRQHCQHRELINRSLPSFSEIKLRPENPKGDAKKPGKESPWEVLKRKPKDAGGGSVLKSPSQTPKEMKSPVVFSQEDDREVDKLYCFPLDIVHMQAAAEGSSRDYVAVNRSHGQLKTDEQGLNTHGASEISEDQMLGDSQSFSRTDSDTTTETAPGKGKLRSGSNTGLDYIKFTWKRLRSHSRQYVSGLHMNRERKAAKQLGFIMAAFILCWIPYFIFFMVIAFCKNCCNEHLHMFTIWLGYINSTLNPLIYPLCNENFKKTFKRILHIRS

[1] = system: adrenergic receptor sites; settings: background; cited from earlier work
NMDA receptor = settings: noncompetitive NMDA receptor antagonists; background; cited from earlier work
[2] = system: patients with bipolar I disorder experiencing a manic or mixed episode; test: Multicenter, open-label study of memantine hydrochloride in acute treatment of hospitalized patients with bipolar I disorder (Example 1); assay type: in vivo, human; settings: for MRS Total Score, Change at Day 21 (LOCF), Mean ± SEM / YMRS Total Score, Change at Day 21 (LOCF), Mean ± SEM / MRS Total Score, Change at Day 21 (OC), Mean ± SEM / YMRS Total Score, Change at Day 21 (OC), Mean ± SEM / CGI-I Rating, Day 21, Mean ± SEM / CGI-S Rating, Change at Day 21, Mean ± SEM / MADRS Total Score, Change at Day 21, Mean ± SEM / PANSS Total Score, Change at Day 21, Mean ± SEM / PANSS-EC Score, Change at Day 21, Mean ± SEM: 21 days; for MRS Total Score, Change at Day 21 (LOCF), Mean ± SEM / YMRS Total Score, Change at Day 21 (LOCF), Mean ± SEM / CGI-I Rating, Day 21, Mean ± SEM / CGI-S Rating, Change at Day 21, Mean ± SEM / MADRS Total Score, Change at Day 21, Mean ± SEM / PANSS Total Score, Change at Day 21, Mean ± SEM / PANSS-EC Score, Change at Day 21, Mean ± SEM / MRS Response, % of patients / MRS Response, n of patients / YMRS Response, % of patients / YMRS Response, n of patients: ITT; for MRS Total Score, Change at Day 21 (OC), Mean ± SEM / YMRS Total Score, Change at Day 21 (OC), Mean ± SEM: observed cases; for CGI-I Rating, Day 21, Mean ± SEM / CGI-S Rating, Change at Day 21, Mean ± SEM / MADRS Total Score, Change at Day 21, Mean ± SEM / PANSS Total Score, Change at Day 21, Mean ± SEM / PANSS-EC Score, Change at Day 21, Mean ± SEM / MRS Response, % of patients / MRS Response, n of patients / YMRS Response, % of patients / YMRS Response, n of patients: LOCF; for MRS Response, % of patients / MRS Response, n of patients / YMRS Response, % of patients / YMRS Response, n of patients: Day 21, response = ≧50% reduction in total score from baseline
Excerpt: The entrance criteria for the patients included: Hospitalized adult inpatients, with bipolar I disorder by DSM-IV-TR criteria • Manic or mixed episode: ≧20 on the Young Mania Rating Scale (YMRS), with and without psychotic features; • Diagnosis based on clinical evaluation and confirmed using the Structured Clinical Interview for DSM Disorders. The following comorbid psychiatric diagnoses were allowed to enroll: Attention deficit hyperactivity disorder [ADHD], conduct disorder, obsessive-compulsive disorder, anxiety disorders, and substance abuse. Additional psychotropic medications were not allowed. Patients were assigned to 21-days of treatment in one of three groups: Group 1, 20 mg memantine hydrochloride per day (range 20-30 mg memantine per day); Group 2, 30 mg memantine hydrochloride per day (range 20-40 mg memantine per day); Group 3, 40 mg memantine hydrochloride per day (range 30-50 mg memantine per day). […] Dose modification was continued to study completion or early termination. Efficacy measures included the Young Mania Rating Scale (YMRS) and the Mania Rating Scale (MRS) (≧50% reduction in total score from baseline). The change from baseline was also assessed using the Positive and Negative Syndrome Scale (PANSS) in patients with psychiatric symptoms, Positive and Negative Syndrome Scale-Excited Component (PANSS-EC), Clinical Global Impression Severity (CGI-S) and Improvement (CGI-I) scores, and the change from baseline in the Montgomery Asberg Depression Rating Scale (MADRS). […] The mean duration of treatment was 16.1 days (Group I), 14.7 days (Group 2) and 17.3 days (Group 3).

[3] = system: ICV ouabain-induced motoric hyperactivity; settings: ouabain treated (ICV) versus sham 53.1±SD 50.0; El-Mallakh et al. 2003; cited from earlier work
[4] = Group 1: 20 mg per day (range 20-30 mg), n=12
[5] = Group 1: 20 mg per day (range 20-30 mg), n=6
[6] = Group 2: 30 mg per day (range 20-40 mg), n=11
[7] = Group 2: 30 mg per day (range 20-40 mg), n=6
[8] = Group 3: 40 mg per day (range 30-50 mg), n=10
[9] = Group 3: 40 mg per day (range 30-50 mg), n=8

SMILES: CN(C)C(=O)N[C@H]1CC[C@H](CCN2CCN(c3cccc(Cl)c3Cl)CC2)CC1 [Cariprazine hydrochloride, trans-1-{4-[2-[4-(2,3-dichlorophenyl)-piperazin-1-yl]-ethyl]-cyclohexyl}-3,3-dimethyl-urea hydrochloride]
- Potency at 5-HT2C receptor site (in words) (5-HT2C): low potency
- Potency at histamine H1 receptor site (in words) (histamine H1): low potency
- Potency at adrenergic receptor sites (in words) [1]: low potency

SMILES: CC12CC3CC(C)(C1)CC(N)(C3)C2 [Memantine, 1-amino-3,5-dimethyl adamantane]
- Affinity for the NMDA receptor (in words) (NMDA receptor): moderate affinity

SMILES: CC12CC3CC(C)(C1)CC(N)(C3)C2 [memantine hydrochloride]
- MRS Total Score, Change at Day 21 (LOCF), Mean ± SEM [2, 4]: −9.8 ± 2.2
- YMRS Total Score, Change at Day 21 (LOCF), Mean ± SEM [2, 4]: −9.5 ± 2.8
- MRS Total Score, Change at Day 21 (OC), Mean ± SEM [2, 5]: −15.3 ± 1.7
- YMRS Total Score, Change at Day 21 (OC), Mean ± SEM [2, 5]: −17.0 ± 1.9
- CGI-I Rating, Day 21, Mean ± SEM ([2]; Group 1: 20 mg per day, n=12): 3.3 ± 0.5
- CGI-S Rating, Change at Day 21, Mean ± SEM ([2]; Group 1: 20 mg per day, n=12): −0.8 ± 0.3
- MADRS Total Score, Change at Day 21, Mean ± SEM ([2]; Group 1: 20 mg per day, n=12): −3.4 ± 1.8
- PANSS Total Score, Change at Day 21, Mean ± SEM ([2]; Group 1: 20 mg per day, n=12): −5.1 ± 3.9
- PANSS-EC Score, Change at Day 21, Mean ± SEM ([2]; Group 1: 20 mg per day, n=12): −0.7 ± 1.5
- MRS Response, % of patients ([2]; Group 1: 20 mg per day, n=12): 50.0%
- MRS Response, n of patients ([2]; Group 1: 20 mg per day, n=12): 6 n
- YMRS Response, % of patients ([2]; Group 1: 20 mg per day, n=12): 50.0%
- YMRS Response, n of patients ([2]; Group 1: 20 mg per day, n=12): 6 n
- MRS Total Score, Change at Day 21 (LOCF), Mean ± SEM [2, 6]: −7.4 ± 2.6
- YMRS Total Score, Change at Day 21 (LOCF), Mean ± SEM [2, 6]: −6.4 ± 3.8
- MRS Total Score, Change at Day 21 (OC), Mean ± SEM [2, 7]: −13.0 ± 2.1
- YMRS Total Score, Change at Day 21 (OC), Mean ± SEM [2, 7]: −15.5 ± 1.5
- CGI-I Rating, Day 21, Mean ± SEM ([2]; Group 2: 30 mg per day, n=11): 3.6 ± 0.5
- CGI-S Rating, Change at Day 21, Mean ± SEM ([2]; Group 2: 30 mg per day, n=11): −0.7 ± 0.4
- MADRS Total Score, Change at Day 21, Mean ± SEM ([2]; Group 2: 30 mg per day, n=11): 0.0 ± 2.7
- PANSS Total Score, Change at Day 21, Mean ± SEM ([2]; Group 2: 30 mg per day, n=11): −1.5 ± 5.8
- PANSS-EC Score, Change at Day 21, Mean ± SEM ([2]; Group 2: 30 mg per day, n=11): −0.5 ± 1.8
- MRS Response, % of patients ([2]; Group 2: 30 mg per day, n=11): 27.3%
- MRS Response, n of patients ([2]; Group 2: 30 mg per day, n=11): 3 n
- YMRS Response, % of patients ([2]; Group 2: 30 mg per day, n=11): 45.5%
- YMRS Response, n of patients ([2]; Group 2: 30 mg per day, n=11): 5 n
- MRS Total Score, Change at Day 21 (LOCF), Mean ± SEM [2, 8]: −7.2 ± 2.0
- YMRS Total Score, Change at Day 21 (LOCF), Mean ± SEM [2, 8]: −7.9 ± 2.4
- MRS Total Score, Change at Day 21 (OC), Mean ± SEM [2, 9]: −9.3 ± 1.8
- YMRS Total Score, Change at Day 21 (OC), Mean ± SEM [2, 9]: −10 ± 2.3
- CGI-I Rating, Day 21, Mean ± SEM ([2]; Group 3: 40 mg per day, n=10): 2.9 ± 0.5
- CGI-S Rating, Change at Day 21, Mean ± SEM ([2]; Group 3: 40 mg per day, n=10): −0.6 ± 0.3
- MADRS Total Score, Change at Day 21, Mean ± SEM ([2]; Group 3: 40 mg per day, n=10): −3.3 ± 1.7
- PANSS Total Score, Change at Day 21, Mean ± SEM ([2]; Group 3: 40 mg per day, n=10): −7.7 ± 3.8
- PANSS-EC Score, Change at Day 21, Mean ± SEM ([2]; Group 3: 40 mg per day, n=10): −0.7 ± 1.4
- MRS Response, % of patients ([2]; Group 3: 40 mg per day, n=10): 10.0%
- MRS Response, n of patients ([2]; Group 3: 40 mg per day, n=10): 1 n
- YMRS Response, % of patients ([2]; Group 3: 40 mg per day, n=10): 30.0%
- YMRS Response, n of patients ([2]; Group 3: 40 mg per day, n=10): 3 n
- Effectiveness in the treatment of acute mania associated with bipolar disorder (in words) ([2]; overall conclusion of Example 1): surprisingly effective

SMILES: CC1(C)CC(C)(C)CC(C)(N)C1 [neramexane, 1-amino-1,3,3,5,5-pentamethylcyclohexane]
- Affinity for the NMDA receptor (in words) (NMDA receptor): moderate affinity

SMILES: C[C@@H]1O[C@@H](O[C@H]2C[C@@H](O)[C@]3(CO)[C@H]4[C@H](O)C[C@]5(C)[C@@H](C6=CC(=O)OC6)CC[C@]5(O)[C@@H]4CC[C@]3(O)C2)[C@H](O)[C@H](O)[C@H]1O [ouabain]
- Open field exploratory activity [3]: 258.7±316.6 squares traversed
